# Measured values published in publication PMC4856977, “Efficient enzymatic synthesis and dual-colour fluorescent labelling of DNA probes using long chain azido-dUTP and BCN dyes” (Nucleic Acids Research, 2016).
# What was measured:
# Klenow large fragment = molecular target: T1, Klenow large fragment (Escherichia coli, UniProt P00582); assay: primer extension, denaturing PAGE and mass spectrometry; assay type: biochemical; details: templates T1 and T2, primer P3; 37°C
# T1 construct: gene polA; large (Klenow) fragment of DNA polymerase I, without the N-terminal 5'-3' exonuclease domain; commercial (New England Biolabs)
# T1 sequence (P00582 324-928 limits assumed): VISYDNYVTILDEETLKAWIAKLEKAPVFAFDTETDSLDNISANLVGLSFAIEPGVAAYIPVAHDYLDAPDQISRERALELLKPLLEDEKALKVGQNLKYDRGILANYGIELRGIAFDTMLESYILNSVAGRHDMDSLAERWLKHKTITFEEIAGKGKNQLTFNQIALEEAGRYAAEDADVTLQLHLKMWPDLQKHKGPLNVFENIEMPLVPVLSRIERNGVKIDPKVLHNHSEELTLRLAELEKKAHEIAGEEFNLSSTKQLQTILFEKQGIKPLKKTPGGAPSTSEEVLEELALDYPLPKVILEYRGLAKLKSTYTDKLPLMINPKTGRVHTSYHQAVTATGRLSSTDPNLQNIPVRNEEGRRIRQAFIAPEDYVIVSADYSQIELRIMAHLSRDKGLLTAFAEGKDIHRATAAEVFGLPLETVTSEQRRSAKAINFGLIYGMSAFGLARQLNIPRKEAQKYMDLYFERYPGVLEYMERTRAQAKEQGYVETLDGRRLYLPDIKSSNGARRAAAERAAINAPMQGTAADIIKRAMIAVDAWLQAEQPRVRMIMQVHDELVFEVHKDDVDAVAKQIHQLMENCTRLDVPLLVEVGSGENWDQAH
# Therminator II = molecular target: T2, Therminator II (Thermococcus sp. 9oN-7, UniProt Q56366, D141A/E143A/Y409V/A485L, form not given); assay: as above; assay type: biochemical; details: templates T1 and T2, primer P3; 72°C
# T2 construct: gene pol; commercial engineered variant of 9°N DNA polymerase (New England Biolabs)
# T2 sequence (Q56366 whole entry D141A/E143A/Y409V/A485L, form open): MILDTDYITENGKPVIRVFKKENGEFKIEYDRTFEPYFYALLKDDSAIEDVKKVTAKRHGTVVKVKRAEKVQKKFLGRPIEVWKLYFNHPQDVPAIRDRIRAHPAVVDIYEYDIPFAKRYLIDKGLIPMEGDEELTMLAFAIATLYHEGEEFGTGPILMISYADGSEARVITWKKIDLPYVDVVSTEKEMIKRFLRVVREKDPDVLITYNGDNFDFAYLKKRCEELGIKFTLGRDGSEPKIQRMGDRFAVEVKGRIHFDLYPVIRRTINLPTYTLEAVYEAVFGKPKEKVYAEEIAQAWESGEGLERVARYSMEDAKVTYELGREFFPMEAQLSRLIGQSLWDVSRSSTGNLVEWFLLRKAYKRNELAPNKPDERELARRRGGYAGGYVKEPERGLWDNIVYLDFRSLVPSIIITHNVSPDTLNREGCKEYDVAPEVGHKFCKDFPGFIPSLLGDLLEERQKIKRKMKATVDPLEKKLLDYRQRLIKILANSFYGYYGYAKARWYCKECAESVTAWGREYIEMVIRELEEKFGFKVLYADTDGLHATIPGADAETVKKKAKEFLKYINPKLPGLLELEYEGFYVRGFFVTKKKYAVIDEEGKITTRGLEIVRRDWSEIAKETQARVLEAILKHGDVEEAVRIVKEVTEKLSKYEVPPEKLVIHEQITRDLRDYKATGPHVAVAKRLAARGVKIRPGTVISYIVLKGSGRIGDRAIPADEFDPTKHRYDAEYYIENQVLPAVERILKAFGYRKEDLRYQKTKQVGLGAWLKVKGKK
smiles,measurement,setting,value
[N-]=[N+]=NCCCCCC(=O)NCC#Cc1cn([C@H]2C[C@H](O)[C@@H](COP(=O)(O)OP(=O)(O)OP(=O)(O)O)O2)c(=O)[nH]c1=O [AHP dUTP],"primer extension, denaturing PAGE and mass spectrometry",Klenow large fragment,all four polymerases successfully incorporate AHP dUTP in the presence of templates T1 and T2
same,"primer extension, denaturing PAGE and mass spectrometry",Therminator II,all four polymerases successfully incorporate AHP dUTP in the presence of templates T1 and T2
